{"source": "patent US5536723A", "about": "“S-nitroso derivatives of hydrazinoacetic acids, 1-[(acylthio and (mercapto)-1-oxoalkyl]-1,2,34-Tetrahydroquinoline-2-carboxylic acids and alanyl prolines and isoquinolines” (Brigham & Women's Hospital, priority 1994, dated 1996)", "key": {"platelets": {"test_system": "platelets", "assay": "platelet aggregation in PRP induced by ADP", "type": "cell-based, human", "details": "Homo sapiens, Platelet, 11 μM ADP", "method": "FIG. 7 depicts a graph showing the effect of S-nitrosocaptopril on platelet aggregation. Platelets in PRP were incubated with S-nitrosocaptopril over a range of concentrations for three minutes, after which ADP was added to a final concentration of 11 uM. The maximal rate of aggregation was measured and plotted as a percentage of that observed in the absence of S-nitrosocaptopril. Each point represents the mean ±SEM of five experiments each performed in duplicate.\nPlatelets. Volunteers who had not ingested acetylsalicylic acid for at least ten days provided venous blood within one hour of use. […] Platelet counts were determined using a Coulter counter (Model ZM; Coulter Electronics, Hialeah, Fla.) and adjusted with platelet-poor plasma (PPP) to 1.5×10^8 platelets/ml prior to use.\nPlatelet Aggregation. Platelet aggregation was monitored using a standard nephelometric technique (Born and Cross, J. Physiol (London) 168:178-195 (1963)) in which PRP was incubated at 37° with a final concentration of 11 μM ADP and stirred at 900 rpm in a Payton dual channel aggregometer (Payton Associates, Inc., Buffalo, N.Y.). Aggregation was quantitated by measuring either the maximal rate of change of light transmittance or the extent of change of light transmittance. […]"}, "ACE": {"molecular_target": "T1, ACE (Rattus norvegicus, UniProt P47820)", "T1 sequence (P47820 36-1313)": "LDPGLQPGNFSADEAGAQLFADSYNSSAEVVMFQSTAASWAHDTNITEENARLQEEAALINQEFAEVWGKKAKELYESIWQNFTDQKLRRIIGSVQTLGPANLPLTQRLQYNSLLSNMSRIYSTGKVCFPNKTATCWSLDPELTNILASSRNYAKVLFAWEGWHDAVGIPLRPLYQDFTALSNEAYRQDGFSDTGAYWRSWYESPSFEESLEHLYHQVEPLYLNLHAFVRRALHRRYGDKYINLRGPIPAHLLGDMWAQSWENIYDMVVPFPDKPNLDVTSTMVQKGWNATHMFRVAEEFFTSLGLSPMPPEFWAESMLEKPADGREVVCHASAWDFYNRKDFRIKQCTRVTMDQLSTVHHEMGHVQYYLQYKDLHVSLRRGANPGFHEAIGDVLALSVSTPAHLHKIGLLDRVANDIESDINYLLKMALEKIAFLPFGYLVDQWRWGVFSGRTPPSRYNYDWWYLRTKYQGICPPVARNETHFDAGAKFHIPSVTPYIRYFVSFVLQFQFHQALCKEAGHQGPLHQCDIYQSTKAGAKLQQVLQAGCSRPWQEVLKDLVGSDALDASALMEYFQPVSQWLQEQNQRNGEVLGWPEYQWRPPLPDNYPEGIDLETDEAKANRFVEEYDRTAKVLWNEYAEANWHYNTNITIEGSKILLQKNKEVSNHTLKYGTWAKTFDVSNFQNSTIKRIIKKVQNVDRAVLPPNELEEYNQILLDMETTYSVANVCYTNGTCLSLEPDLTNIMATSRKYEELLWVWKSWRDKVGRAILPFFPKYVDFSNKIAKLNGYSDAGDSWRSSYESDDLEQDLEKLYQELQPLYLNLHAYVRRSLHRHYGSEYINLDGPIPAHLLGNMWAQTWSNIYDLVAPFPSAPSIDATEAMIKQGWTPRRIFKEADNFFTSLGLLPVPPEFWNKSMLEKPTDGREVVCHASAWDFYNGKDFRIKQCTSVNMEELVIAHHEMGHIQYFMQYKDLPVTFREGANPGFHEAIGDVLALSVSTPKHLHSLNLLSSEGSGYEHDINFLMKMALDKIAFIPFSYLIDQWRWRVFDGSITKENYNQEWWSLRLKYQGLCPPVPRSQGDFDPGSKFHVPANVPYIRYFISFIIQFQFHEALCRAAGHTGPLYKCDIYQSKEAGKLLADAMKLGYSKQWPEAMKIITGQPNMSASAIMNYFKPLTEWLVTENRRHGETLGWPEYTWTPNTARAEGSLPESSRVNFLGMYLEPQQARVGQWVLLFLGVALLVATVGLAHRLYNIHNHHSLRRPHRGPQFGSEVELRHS", "assay": "ACE inhibition, rat lung source of ACE", "type": "biochemical", "details": "10^-10 to 10^-8", "experimental": "Under the conditions of this assay (0.1M potassium phosphate, pH 8.3, 0.3M NaCl at 37°), ACE preparations generated 6.32 nmoles of product/mg protein/min."}}, "data": [{"smiles": "C[C@H](CSN=O)C(=O)N1CCC[C@H]1C(=O)O", "note": "[S-nitrosocaptopril]", "values": [{"measurement": "IC50", "setting": "platelets", "result": "~80", "unit": "µM"}, {"measurement": "ACE inhibition (in words, FIG. 6)", "setting": "ACE", "result": "almost complete inhibition of ACE"}]}]}
